Results as given in patent publication US20140357688A1, “METHOD FOR INHIBITING EZH2 EXPRESSION IN BREAST CANCER CELLS” (Yung Shin Pharm. Ind. Co., Ltd., priority 2013, published 2014).

What was measured:
Type in all cases: cell-based, human
[1] = system: caspase-8, -9, and -3 and PARP; assay: Western blot of caspases and PARP cleavage
Method: (A) Cells were treated with indicated concentration of YC-1 for 6, 24, and 48 h. Cell viability was determined by MTT method. (B) MDA-MB-468 cells were treated with 3 μM YC-1 for 0, 6, and 12 h, and then stained with fluorescence diacetate (FDA) and propidium iodide (PI). Cell morphology was assessed by fluorescence microscopy with magnification ×20 (upper 3 rows) or ×40 (lowest row). (C) MDA-MB-468 cells were treated with 3 μM YC-1 for 24 h, cells were lysed and subjected to western blot analysis described in Materials and Methods. β-actin is a loading control. Blots were representative of results from three independent experiments. (D) Cells were treated with vehicle (DMSO, as control) or 3 μM YC-1 for 6 h. The cell cycles were analyzed by flow cytometry. […]
(A)(B) Cells were treated with indicated concentration of YC-1 for 24 h (A) or 3 μM of YC-1 for indicated time (B). […] The levels of protein expression were quantitated and shown under blots. […] (D)(E) After 4 days of EZH2 knockdown, cells were incubated with 3 μM YC-1 for 4 h and detected cell viability (D) and protein contents (E). […]
(§1) Cells were lysed in PBS containing proteinase inhibitor and phosphatase inhibitors and sonication. Protein concentration was measured using the Bio-Rad protein assay kit (Bio-Rad Laboratories, Hercules, Calif., USA). […] The band intensities were analyzed and quantified by the Multi Gauge software (Fuji Photo Film).

MDA-MB-468 cells = assay: Colony formation (clonogenic) assay
Method: (A) Cells were treated with indicated concentration of YC-1 for 6, 24, and 48 h. Cell viability was determined by MTT method. (B) MDA-MB-468 cells were treated with 3 μM YC-1 for 0, 6, and 12 h, and then stained with fluorescence diacetate (FDA) and propidium iodide (PI). Cell morphology was assessed by fluorescence microscopy with magnification ×20 (upper 3 rows) or ×40 (lowest row). (C) MDA-MB-468 cells were treated with 3 μM YC-1 for 24 h, cells were lysed and subjected to western blot analysis described in Materials and Methods. β-actin is a loading control. Blots were representative of results from three independent experiments. (D) Cells were treated with vehicle (DMSO, as control) or 3 μM YC-1 for 6 h. The cell cycles were analyzed by flow cytometry. (E) Cells were treated with indicated concentration of YC-1 and then performed with clonogenic assay.
After exposure to YC-1, cells were collected and washed extensively with PBS. Five hundred cells per well was seeded onto 6-well plates and maintained in a 37° C., 5% CO2 incubator. Three weeks later, colonies were fixed with formaldehyde (3.7%, v/v) and stained with crystal violet (0.5%, w/v), then counted.

Src, Raf-1, and MEK = assay: Western blot of Src, Raf-1 and MEK activation; settings: 3 μM YC-1
Method: (A) Cells were pretreated with DMSO (as control), Bay-43-9006 (Bay, 10 μM), farnyesyl thiosalicylic acid (FTS, 10 μM), Src inhibitor I (SrcI, 10 μM), and genistein (Gen, 10 μM), then followed by YC-1 (3 μM) incubation for 6 h. Cells were harvested and lysed for western blot analysis (left, right) and cell viability (middle). The levels of protein expression were quantitated and shown under blots. (B) MDA-MB-468 cells were transfected with shRNA of Raf-1 or Src. After stimulation of 3 μM YC-1 for 4 h, cell protein was subjected to western blot analysis. (C) Cells were incubated with 3 μM YC-1 for indicated time and then lysed for detection of Src, Raf-1, and MEK activation by using specific anti-phosphorylated antibodies. (D) Cells were treated with 3 μM YC-1 for indicated time. Cells were lysed and detected Ras activation by using Raf-RBD conjugated agarose to pull-down Ras-GTP. The total Ras in cell lysate was also detected. […] Cells were lysed and protein expression was determined by western blot analysis. […]
as §1

EGFR = assay: Western blot of EGFR phosphorylation and expression
Method: Cells were incubated with 3 μM YC-1 for indicated time. Cells were harvested and subjected to western blot analysis for the detection of protein expression. Cells were lysed in PBS containing proteinase inhibitor and phosphatase inhibitors and sonication. Protein concentration was measured using the Bio-Rad protein assay kit (Bio-Rad Laboratories, Hercules, Calif., USA). Lysate protein was separated by electrophoresis of SDS-PAGE and transferred to Immobilon P membrane (EMD Millipore). The membranes were incubated with appropriate primary antibodies and horseradish peroxidase-conjugated secondary antibodies (EMD Millipore). The signaling was visualized using Chemiluminescence substrate kit (EMD Millipore) and collected by the Luminesence image analyzer, LAS4000 (Fuji Photo Film Co., Tokyo, Japan). The band intensities were analyzed and quantified by the Multi Gauge software (Fuji Photo Film).

CDK1 = assay: Western blot of CDK1 activation; settings: 3 μM YC-1
Method: (§2) (A) MDA-MB-468 cells were incubated with 3 μM YC-1 for indicated time. Cells were harvested for the detection of phospho-Akt (Ser473), Akt, and PCNA. (B) Cells were pretreated with LY294002 (LY, 10 μM) for 1 h followed by 3 μM YC-1 induction for 6 h. (C) MDA-MB-468 cells were incubated with 3 μM YC-1 for indicated time. Cells were harvested for the detection of phospho-CDK1 (Thr161), CDK1, phospho-EZH2 ([…]), EZH2, and β-actin expression with western blot analysis. Levels of EZH2 phosphorylation were calculated by phospho-EZH2 normalized by total EZH2. (D) Cells were treated with YC-1 for 6 h in the absence or presence of roscovitine (Rosc, 20 μM). Cells were harvested and analyzed by western blotting for protein expression. (E) CDK1 knockdown of MDA-MB-468 cells were induced with 3 μM YC-1 for 4 h and followed by western blot analysis.
as §1, with “USA). Lysate protein was separated by electrophoresis of SDS-PAGE and transferred to Immobilon P membrane (EMD Millipore).” for “USA).”

EZH2 Tyr487 = assay: Western blot of EZH2 phosphorylation; settings: 3 μM YC-1
Method: as §2
as §1, with “USA). Lysate protein was separated by electrophoresis of SDS-PAGE and transferred to Immobilon P membrane (EMD Millipore).” for “USA).”

OCc1ccc(-c2nn(Cc3ccccc3)c3ccccc23)o1 [YC-1, 3-(5′-hydroxymethyl-2′-furyl)-1-benzyl indazole]
earliest effects of caspase-3 activation detected ([1]; 3 μM YC-1): 4 h | cleavage of caspases and PARP ([1]; 3 μM YC-1, 24 h): clearly caused the cleavage of caspases and PARP | clonogenic activity (MDA-MB-468 cells): potent ability in attenuation of tumor formation | phosphorylated activation of Src, Raf-1, and MEK (Src, Raf-1, and MEK): time-dependent phosphorylated activation | EGFR phosphorylation (EGFR; 3 μM YC-1): rapidly induced EGFR phosphorylation | EGFR protein expression (EGFR; 3 μM YC-1, after 6 h treatment): significant decrease | CDK1 activation (CDK1): could induce the activation | phosphorylation of EZH2 Tyr487 (EZH2 Tyr487): no effect
